In patent US12336991B2, “Factor XIIA inhibitors” (UNIVERSITY OF LEEDS, priority 2018, dated 2025):

What was measured:
Assay type in all cases: biochemical
FXIIa = target: T1, FXIIa (Homo sapiens, UniProt P00748); experiment: Determination of Factor XIIa inhibition, chromogenic substrate S-2302 assay; settings: human FXIIa alpha
T1 sequence (P00748 373-615 limits assumed): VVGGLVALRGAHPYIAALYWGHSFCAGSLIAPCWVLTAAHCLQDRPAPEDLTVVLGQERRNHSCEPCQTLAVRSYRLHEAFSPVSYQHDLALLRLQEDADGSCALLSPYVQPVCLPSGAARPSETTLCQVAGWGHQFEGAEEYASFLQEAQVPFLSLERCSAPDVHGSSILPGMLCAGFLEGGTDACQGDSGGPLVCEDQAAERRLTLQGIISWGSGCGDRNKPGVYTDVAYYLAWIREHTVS
T1 sequence (P00748 20-372 partner limits assumed): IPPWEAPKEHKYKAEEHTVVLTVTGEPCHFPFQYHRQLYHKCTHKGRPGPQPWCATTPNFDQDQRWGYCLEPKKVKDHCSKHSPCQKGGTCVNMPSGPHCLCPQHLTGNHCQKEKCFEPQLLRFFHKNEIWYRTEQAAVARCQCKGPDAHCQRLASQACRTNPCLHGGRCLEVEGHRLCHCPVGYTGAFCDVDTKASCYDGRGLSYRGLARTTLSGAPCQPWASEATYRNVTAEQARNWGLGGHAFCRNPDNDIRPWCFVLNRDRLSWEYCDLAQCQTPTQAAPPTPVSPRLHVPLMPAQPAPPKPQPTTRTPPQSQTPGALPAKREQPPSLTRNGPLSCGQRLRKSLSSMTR
Method: (§1) The activities of the compounds of the invention have been determined in vitro using the following assays protocols for the screening of activity of FXIIa and other proteases. Each of these assays were performed in a purified system employing the use of chromogenic assays in microplate plate wells. Chromogenic peptide substrates mimicking natural protein substrates are attached via an amide bond to a chromogenic group. Paranitroaniline (pNA) is released from the peptide following catalyses by the proteolytic enzyme; the absorbance increases and can be monitored at 405 nm.
(§2) All compounds were dissolved in 100% (v/v) DMSO to a stock concentration of 10 mM, the highest concentration of compound used in each assay is 500 μM. The final concentrations of DMSO were 5% (v/v) in 50 mM Tris 137 mM NaC pH 7.4. Where no test compound was added a final concentration of 5% DMSO was employed.
Determination of Factor XIa Inhibition
Factor XIa activity was measured using a chromogenic substrate S-2302 (Chromogenix). Various concentrations of compound were incubated with 10 nM of FXIIa and incubated at 37° C. for 10 minutes in 50 mM Tris, 137 mM NaCl, pH 7.4, prior to the addition of a final concentration of 450 µM S-2302 chromogenic substrate. Kinetic readings at 405 nm were monitored every 12 secs for a total duration of 3 hours at 37° C. Gradients of initial rates were determined and employed to calculate IC50 values. Values of IC50 were converted to Ki values based on the formula: Ki=IC50/(1+[Substrate]/Km).
The activity of the compounds of the invention has been categorised based on the Ki values, the categories being “*”, “**” and “***”. […] The category “**” refers to compounds with a Ki value of 0.2 μM to 2 μM.

thrombin = target: T2, thrombin (Homo sapiens, UniProt P00734); experiment: Determination of selectivity: thrombin inhibition, chromogenic substrate GPR assay; settings: fold selectivity for FXIIa over thrombin
T2 construct: FXa (5 nM) and thrombin (5 nM)
Method: as §1, §2
(§3) Determination of Selectivity
(§4) To determine selectivity of test compounds, these test compounds were assayed for inhibitory activity against other serine proteases including FXa and thrombin. Essentially compounds at increasing concentrations were incubated with each enzyme: FXa (5 nM) and thrombin (5 nM), for 10 mins at 37° C. followed the appropriate chromogenic substrate, S2765 ([…]), and GPR ([…]) respectively in 50 mM Tris, 137 mM NaCl, pH 7.4. Chromogenic substrates S2765 was from Chromogenix, and GPR from Bachem. Kinetic readings at 405 nm were monitored every 12 secs for a total duration of 3 hours at 37° C. Gradients of initial rates were determined and employed to calculate IC50 values. Values of IC50 were converted to Ki values based on the formula: Ki=IC50/(1+[Substrate]/Km)
(§5) Where [Substrate] denotes the concentration of substrate used in the assay and Km is the determined value of each enzyme with its own substrate.
(§6) The fold selectivity for FXIIa over thrombin for the compounds of the invention has been categorised based on the fold selectivity values, the categories being “+”, “++” and “+++”. The category “+” refers to fold selectivity values less than 10. The category “++” refers to a fold selectivity value of 10 to 100. The category “+++” refers to fold selectivity values greater than 100.

FXa = FXa (Homo sapiens, UniProt P00742); experiment: Determination of selectivity: FXa inhibition, chromogenic substrate S2765 assay; settings: fold selectivity for FXIIa over FXa
Method: as §1, §2, §3, §4, §5, §6
The fold selectivity for FXIIa over FXa for the compounds of the invention has been categorised based on the fold selectivity values, the categories being “o”, “oo” and “ooo”. The category “o” refers to fold selectivity values less than 10. The category “oo” refers to a fold selectivity value of 10 to 100. The category “ooo” refers to fold selectivity values greater than 100.

Chain of FXa (P00742 235-488 limits assumed): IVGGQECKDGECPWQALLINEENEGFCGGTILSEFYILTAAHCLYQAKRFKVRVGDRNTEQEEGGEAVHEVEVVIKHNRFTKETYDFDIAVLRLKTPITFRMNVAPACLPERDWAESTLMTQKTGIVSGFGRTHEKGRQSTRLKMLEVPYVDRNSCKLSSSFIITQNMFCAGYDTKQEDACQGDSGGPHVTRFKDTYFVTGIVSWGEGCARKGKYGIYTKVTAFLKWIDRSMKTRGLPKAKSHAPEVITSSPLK
Chain of FXa (P00742 41-179 partner limits assumed): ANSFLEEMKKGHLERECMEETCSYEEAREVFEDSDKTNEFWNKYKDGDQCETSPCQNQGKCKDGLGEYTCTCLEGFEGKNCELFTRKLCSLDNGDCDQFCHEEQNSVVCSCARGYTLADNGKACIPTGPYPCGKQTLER

SMILES | Ki (FXIIa) [nM] | Thrombin (human)/FXIIa alpha (human) (thrombin) | FXa (human)/FXIIa alpha (human) (FXa)
N#C[C@@H]1C[C@@H](C(=O)NCc2ccc(CN)cc2)N(C(=O)[C@H](N)CCc2ccccc2)C1 [Example M05091, (2S,4R)-1-((R)-2-Amino-4-phenyl-butyryl)-4-cyano-pyrrolidine-2-carboxylic acid 4-aminomethyl-benzylamide] | > 2000 | + (fold selectivity values less than 10) | ∘∘
Nc1cc(CNC(=O)[C@@H]2C[C@@](O)(c3ccc(F)c(F)c3)CN2C(=O)[C@H](N)CCc2ccccc2)ccn1 [Example M05127] | 200 to 2000 | ++ (fold selectivity value of 10 to 100) | ∘∘
COc1cncc(CC2C[C@@H](C(=O)NCc3ccc4c(c3)nnn4C)N(C(=O)[C@H](N)CCC(=O)N3CCCC3)C2)c1 (stereo partly drawn) [Example M05304] | 200 to 2000 | +++ (fold selectivity values greater than 100) | ∘∘∘
Nc1nccc2cc(CNC(=O)[C@@H]3C[C@@H](c4ccccc4)CN3C(=O)[C@H](N)CCC(=O)N3CCCC3)ccc12 [Example M05282] | 200 to 2000 | ++ (fold selectivity value of 10 to 100) | ∘
Nc1cc(CNC(=O)[C@@H]2C[C@H](NC(=O)c3ccccc3)CN2C(=O)[C@H](N)CCc2ccccc2)ccn1 [Example M05142] | 200 to 2000 | + (fold selectivity values less than 10) | ∘∘
NCc1ccc(CNC(=O)[C@@H]2C[C@H](O)CN2C(=O)[C@H](N)CCc2ccccc2)cc1 [Example M00626] | > 2000 | ++ (fold selectivity value of 10 to 100) | ∘∘
COc1ccc(C[C@@H]2C[C@@H](C(=O)NCc3ccc4c(c3)nnn4C)N(C(=O)[C@H]3C[C@@H](C(=O)N4CCCC4)CCN3)C2)cc1 [Example M05490] | < 200 | +++ (fold selectivity values greater than 100) | ∘∘∘
Cn1nnc2cc(CNC(=O)[C@@H]3CC(Cc4ccnc(C(F)(F)F)c4)CN3C(=O)[C@H](N)CCC(=O)N3CCCC3)ccc21 (stereo partly drawn) [Example M05303] | 200 to 2000 | ++ (fold selectivity value of 10 to 100) | ∘∘∘
Cn1nnc2cc(CNC(=O)[C@@H]3C[C@@H](Cc4cccnc4)CN3C(=O)[C@H](N)CCC(=O)N3CCCC3)ccc21 [Example M05218] | 200 to 2000 | +++ (fold selectivity values greater than 100) | ∘∘∘
COc1ccc(C[C@@H]2C[C@@H](C(=O)NCc3ccc4c(c3)nnn4C)N(C(=O)[C@H]3CC(c4ccccc4C(F)(F)F)CN3)C2)cc1 (stereo partly drawn) [Example M05397] | 200 to 2000 | +++ (fold selectivity values greater than 100) | ∘∘∘
CN(C)[C@H](CCC(=O)N1CCCC1)C(=O)N1C[C@H](Cc2cccnc2)C[C@H]1C(=O)NCc1ccc2c(c1)c(Cl)nn2C [Example M05219] | < 200 | +++ (fold selectivity values greater than 100) | ∘∘∘
COc1ccc(C[C@@H]2C[C@@H](C(=O)NCc3ccc4c(c3)nnn4C)N(C(=O)[C@H]3C[C@@H](c4ccccc4)CN3C)C2)cc1 [Example M05389, (2S,4R)-4-(4-Methoxy-benzyl)-1-((2R,4S)-1-methyl-4-phenyl-pyrrolidine-2-carbonyl)-pyrrolidine-2-carboxylic acid (1-methyl-1H-benzotriazol-5-ylmethyl)-amide] | 200 to 2000 | +++ (fold selectivity values greater than 100) | ∘∘∘
COc1ccc(C[C@@H]2C[C@@H](C(=O)NCc3cc4cccnc4[nH]3)N(C(=O)[C@H](N)CCC(=O)N3CCCC3)C2)cc1 [Example M05401] | > 2000 | ++ (fold selectivity value of 10 to 100) | ∘∘
COc1ccc(C[C@@H]2C[C@@H](C(=O)NCc3ccc4c(c3)nnn4C)N(C(=O)C3NCCc4cc(OC)ccc43)C2)cc1 (stereo partly drawn) [Example M05442] | 200 to 2000 | +++ (fold selectivity values greater than 100) | ∘∘∘

Second part, the compound after the results:

Ki (FXIIa) [nM] | Thrombin (human)/FXIIa alpha (human) (thrombin) | FXa (human)/FXIIa alpha (human) (FXa) | SMILES
200 to 2000 | ++ (fold selectivity value of 10 to 100) | ∘∘∘ | COc1ccc(C[C@@H]2C[C@@H](C(=O)NCc3ccc4c(c3)nnn4C)N(C(=O)[C@H](N)CC3CCCc4ccccc43)C2)cc1 (stereo partly drawn) [Example M05413]
200 to 2000 | ++ (fold selectivity value of 10 to 100) | ∘∘∘ | Cn1nnc2cc(CNC(=O)[C@@H]3C[C@@H](Cc4ccc(Br)cc4)CN3C(=O)[C@H]3C[C@@H](c4ccccc4)CN3)ccc21 [Example M05342]
> 2000 | ++ (fold selectivity value of 10 to 100) | ∘∘ | Cn1nnc2cc(CNC(=O)[C@@H]3C[C@@H](NC(=O)c4ccccc4)CN3C(=O)[C@H](N)CCc3ccccc3)ccc21 [Example M05179]
> 2000 | ++ (fold selectivity value of 10 to 100) | ∘ | Cn1nnc2cc(CNC(=O)[C@@H]3C[C@@H](Cc4cccc(F)c4)CN3C(=O)[C@H]3C[C@@H](c4ccccc4)CN3)ccc21 [Example M05327]
> 2000 | – | – | COc1ccc(C[C@@H]2C[C@@H](C(=O)NCc3ccc4c(c3)nnn4C)N(C(=O)C(N)CC(C)(C)c3ccccc3)C2)cc1 (stereo partly drawn) [Example M05415]
> 2000 | – | – | CC(=O)N[C@H]1C[C@@H](C(=O)NCc2ccc3c(c2)nnn3C)N(C(=O)[C@H](N)CCc2ccccc2)C1 [Example M05144, (2S,4S)-4-Acetylamino-1-((R)-2-amino-4-phenyl-butyryl)-pyrrolidine-2-carboxylic acid (1-methyl-1H-benzotriazol-5-ylmethyl)-amide]
> 2000 | – | – | Cn1nnc2cc(CNC(=O)[C@@H]3C[C@@H](Oc4ccccc4)CN3C(=O)[C@H](N)CCc3ccccc3)ccc21 [Example M00948]
> 2000 | – | – | COc1ccc(C[C@@H]2C[C@@H](C(=O)NCc3ccc4c(c3)nnn4C)N(C(=O)[C@H]3CC(c4cnccc4C(F)(F)F)CN3)C2)cc1 (stereo partly drawn) [Example M05398]
> 2000 | – | – | COc1ccc(C[C@@H]2C[C@@H](C(=O)NCc3ccc4c(c3)nnn4C)N(C(=O)[C@H]3CC(c4cnccc4C)CN3)C2)cc1 (stereo partly drawn) [Example M05408]
> 2000 | – | – | COc1ccc(C[C@@H]2C[C@@H](C(=O)NCc3ccc4c(c3)nnn4C)N(C(=O)C(N)CC(C)(C)c3ccccc3)C2)cc1 (stereo partly drawn) [Example M05416]
